Reference: patent US4156730A, “Pharmaceutically active compounds, preparation thereof, intermediates useful in such preparation and compositions containing the compounds” (Beecham Group Limited, priority 1976, dated 1979)

System: 5-hydroxytryptamine induced bronchoconstriction
Test: inhibition of 5-hydroxytryptamine induced bronchoconstriction (Konzett-Rossler preparation)
Format: in vivo
Details: Cavia porcellus, iv; intravenously; anaesthetised, artificially respired guinea pig; read-out: IC50 for inhibition of bronchoconstriction
Description: The compounds were examined for their ability to inhibit 5-hydroxytryptamine induced bronchoconstriction in the anaesthetised, artifically respired guinea pig (Konzett-Rossler preparation - ref: H. Konzett and R. Rossler, 1940, Arch. exp. Path. Pharmak., 195, 71).

## CCCCC(C)(O)CCCCN1C(=O)CC(=O)C1CCCCCCC(=O)OC (stereo not shown) [Compound 30, 2-(6'-Methoxycarbonyl-n-hexyl)-1-(5"-hydroxy-5"-methyl-n-nonyl)-pyrrolidin-3,5-dione]
  ED50: 0.012 mg/kg
